# What was measured:
# A375 cells (parental) [1] = experiment: Dose-response curves and IC50, PrestoBlue cell viability, 72 h; format: cell-based, human; settings: Homo sapiens, A-375, n.e. = did not suppress growth below 50% in the tested concentration range, read-out: Half-maximal inhibitory concentration value (IC50), Mean
# [2] = system: A375-XP cells (Vemurafenib-resistant); experiment: as above; format: cell-based, human; settings: Homo sapiens, n.e. = did not suppress growth below 50% in the tested concentration range, read-out: Half-maximal inhibitory concentration value (IC50), Mean
# [3] = system: A375-GP cells (Dabrafenib-resistant); experiment: as above; format: cell-based, human; settings: Homo sapiens, n.e. = did not suppress growth below 50% in the tested concentration range, read-out: Half-maximal inhibitory concentration value (IC50), Mean
# 501Mel cells (parental) = experiment: Kinase inhibitor library screening, PrestoBlue cell viability, 1 or 10 μM, 72 h; settings: 501Mel Parental
# Procedure, shortened: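 Readout: PrestoBlue signal on a monochromator plate reader, given as percent viability relative to untreated controls. Parental and drug-resistant (Vemurafenib XP, Dabrafenib GP) sublines were tested; at least duplicates per line.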
# [4] = system: 501Mel-GP cells (Dabrafenib-resistant); experiment: as above; settings: 501Mel GP
# [5] = system: 501Mel-XP cells (Vemurafenib-resistant); experiment: as above; settings: 501Mel XP
# A375 cells (parental) [6] = experiment: as above; settings: A375 Parental
# [7] = system: A375-GP cells (Dabrafenib-resistant); experiment: as above; settings: A375 GP
# [8] = system: A375-XP cells (Vemurafenib-resistant); experiment: as above; settings: A375 XP
# IGR37 cells (parental) = experiment: as above; settings: IGR37 Parental
# [9] = system: IGR37-GP cells (Dabrafenib-resistant); experiment: as above; settings: IGR37 GP
# [10] = system: IGR37-XP cells (Vemurafenib-resistant); experiment: as above; settings: IGR37 XP
IC50 [2] [nM],IC50 [3] [nM],Molecule,IC50 (A375 cells (parental) [1]) [nM],"cell viability (kinase inhibitor library screening) (501Mel cells (parental); 1μΜ, 72 h) [%]","cell viability (kinase inhibitor library screening) (501Mel cells (parental); 10μΜ, 72 h) [%]","cell viability (kinase inhibitor library screening) ([4]; 1μΜ, 72 h) [%]","cell viability (kinase inhibitor library screening) ([4]; 10μΜ, 72 h) [%]","cell viability (kinase inhibitor library screening) ([5]; 1μΜ, 72 h) [%]","cell viability (kinase inhibitor library screening) ([5]; 10μΜ, 72 h) [%]","cell viability (kinase inhibitor library screening) (A375 cells (parental) [6]; 10μΜ, 72 h) [%]","cell viability (kinase inhibitor library screening) ([7]; 1μΜ, 72 h) [%]","cell viability (kinase inhibitor library screening) ([7]; 10μΜ, 72 h) [%]","cell viability (kinase inhibitor library screening) ([8]; 1μΜ, 72 h) [%]","cell viability (kinase inhibitor library screening) ([8]; 10μΜ, 72 h) [%]","cell viability (kinase inhibitor library screening) (IGR37 cells (parental); 10μΜ, 72 h) [%]","cell viability (kinase inhibitor library screening) ([9]; 1μΜ, 72 h) [%]","cell viability (kinase inhibitor library screening) ([9]; 10μΜ, 72 h) [%]","cell viability (kinase inhibitor library screening) ([10]; 1μΜ, 72 h) [%]","cell viability (kinase inhibitor library screening) ([10]; 10μΜ, 72 h) [%]",other results
4990,2210,CC(=O)c1c(C)c2cnc(Nc3ccc(N4CCNCC4)cn3)nc2n(C2CCCC2)c1=O [Palbociclib],5320,–,–,–,–,–,–,–,–,–,–,–,–,–,–,–,–,–
1710,701,CNC(=O)c1cc(Oc2ccc(NC(=O)Nc3ccc(Cl)c(C(F)(F)F)c3)c(F)c2)ccn1 [Regorafenib],2730,–,–,–,–,–,–,–,–,–,–,–,–,–,–,–,–,–
–,–,Cc1ccc(NC(=O)c2cccc(N(C)C)c2)cc1NC(=O)c1ccc(O)cc1 [ZM 336372],–,–,–,–,–,–,–,–,–,–,–,–,–,–,–,–,–,"cell viability (kinase inhibitor library screening) (501Mel cells (parental); 1μΜ, in %): 98.4; cell viability (kinase inhibitor library screening) (501Mel cells (parental); 10μΜ, in %): 89.6; cell viability (kinase inhibitor library screening) ([4]; 1μΜ, in %): 108.5; cell viability (kinase inhibitor library screening) ([4]; 10μΜ, in %): 81.6; cell viability (kinase inhibitor library screening) ([5]; 1μΜ, in %): 90.4; cell viability (kinase inhibitor library screening) ([5]; 10μΜ, in %): 83.5; cell viability (kinase inhibitor library screening) (A375 cells (parental) [6]; 1μΜ, in %): 103.4; cell viability (kinase inhibitor library screening) (A375 cells (parental) [6]; 10μΜ, in %): 91.8; cell viability (kinase inhibitor library screening) ([7]; 10μΜ, in %): 82.7; cell viability (kinase inhibitor library screening) ([8]; 1μΜ, in %): 103.8; cell viability (kinase inhibitor library screening) ([8]; 10μΜ, in %): 95.8; cell viability (kinase inhibitor library screening) (IGR37 cells (parental); 1μΜ, in %): 102.6; cell viability (kinase inhibitor library screening) (IGR37 cells (parental); 10μΜ, in %): 105.1; cell viability (kinase inhibitor library screening) ([9]; 1μΜ, in %): 99.1; cell viability (kinase inhibitor library screening) ([9]; 10μΜ, in %): 96.2; cell viability (kinase inhibitor library screening) ([10]; 1μΜ, in %): 108.8; cell viability (kinase inhibitor library screening) ([10]; 10μΜ, in %): 93.5"
–,–,COc1cc2c(Nc3ccc(NC(=O)c4ccccc4)cc3)ncnc2cc1OCCCN1CCOCC1 [ZM-447439],–,90.8,7.6,104.5,2.3,90.5,-0.26,56.3,79.5,52.0,88.7,65.2,54.6,96.5,69.7,95.9,24.7,"cell viability (kinase inhibitor library screening) (A375 cells (parental) [6]; 1μΜ, 72 h): 76.7%; cell viability (kinase inhibitor library screening) (IGR37 cells (parental); 1μΜ, 72 h): 103.7%"
–,–,FC(F)c1nc2ccccc2n1-c1nc(N2CCOCC2)nc(N2CCOCC2)n1 [ZSTK474],–,–,–,–,–,–,–,–,–,–,–,–,–,–,–,–,–,"Cell viability in kinase inhibitor library screening, 501Mel Parental, 1μΜ (501Mel cells (parental); 1μΜ, 72 h, in %): 66.9; Cell viability in kinase inhibitor library screening, 501Mel Parental, 10μΜ (501Mel cells (parental); 10μΜ, 72 h, in %): 8.9; Cell viability in kinase inhibitor library screening, 501Mel GP, 1μΜ ([4]; 1μΜ, 72 h, in %): 45.9; Cell viability in kinase inhibitor library screening, 501Mel GP, 10μΜ ([4]; 10μΜ, 72 h, in %): 9.4; Cell viability in kinase inhibitor library screening, 501Mel XP, 10μΜ ([5]; 10μΜ, 72 h, in %): 2.5; Cell viability in kinase inhibitor library screening, A375 Parental, 10μΜ (A375 cells (parental) [6]; 10μΜ, 72 h): 16.3; Cell viability in kinase inhibitor library screening, A375 Parental, 1μΜ (A375 cells (parental) [6]; 1μΜ, 72 h): 76.3; Cell viability in kinase inhibitor library screening, A375 GP, 1μΜ ([7]; 1μΜ, 72 h): 69.9; Cell viability in kinase inhibitor library screening, A375 GP, 10μΜ ([7]; 10μΜ, 72 h): 13.0; Cell viability in kinase inhibitor library screening, A375 XP, 1μΜ ([8]; 1μΜ, 72 h): 67.6; Cell viability in kinase inhibitor library screening, A375 XP, 10μΜ ([8]; 10μΜ, 72 h): 15.9; Cell viability in kinase inhibitor library screening, IGR37 Parental, 1μΜ (IGR37 cells (parental); 1μΜ, 72 h, in %): 77.8; Cell viability in kinase inhibitor library screening, IGR37 Parental, 10μΜ (IGR37 cells (parental); 10μΜ, 72 h, in %): 23.8; Cell viability in kinase inhibitor library screening, IGR37 GP, 10μΜ ([9]; 10μΜ, 72 h): 8.8%; Cell viability in kinase inhibitor library screening, IGR37 GP, 1μΜ ([9]; 1μΜ, 72 h, in %): 80.3; Cell viability in kinase inhibitor library screening, IGR37 XP, 10μΜ ([10]; 10μΜ, 72 h): 4.7%; Cell viability in kinase inhibitor library screening, IGR37 XP, 1μΜ ([10]; 1μΜ, 72 h, in %): 71.7"
–,–,MK-2206 dihydrochloride,–,98.7,7.6,90.7,28.3,69.2,1.7,74.4,96.2,66.2,93.8,54.1,25.6,100.0,15.9,94.6,4.2,–
